Structures can show the parent of a compound that is named as a salt.
Assay: Solubility determination of irinotecan hydrochloride Form c in comparison with Form b (excess solid shaken at room temperature, HPLC assay)
Type: physicochemical

Irinotecan hydrochloride concentration (a = deionized water, 15 MIN): 11.03 mg/mL
Irinotecan hydrochloride concentration (a = deionized water, 30 MIN): 12.10 mg/mL
Irinotecan hydrochloride concentration (a = deionized water, 60 MIN): 12.12 mg/mL
Irinotecan hydrochloride concentration (a = deionized water, 120 MIN): 11.80 mg/mL
Irinotecan hydrochloride concentration (b = pH 1.2 buffer, 15 MIN): 0.45 mg/mL
Irinotecan hydrochloride concentration (b = pH 1.2 buffer, 30 MIN): 0.42 mg/mL
Irinotecan hydrochloride concentration (b = pH 1.2 buffer, 60 MIN): 0.44 mg/mL
Irinotecan hydrochloride concentration (b = pH 1.2 buffer, 120 MIN): 0.40 mg/mL
Irinotecan hydrochloride concentration (c = lactic acid pH 3.5, 15 MIN): 10.27 mg/mL
Irinotecan hydrochloride concentration (c = lactic acid pH 3.5, 24 HOURS): 11.06 mg/mL
Irinotecan hydrochloride concentration (c = lactic acid pH 3.5, 30 MIN): 10.38 mg/mL
Irinotecan hydrochloride concentration (c = lactic acid pH 3.5, 60 MIN): 10.17 mg/mL
Irinotecan hydrochloride concentration (c = lactic acid pH 3.5, 120 MIN): 11.13 mg/mL
Structure (SMILES): CCc1c2c(nc3ccc(OC(=O)N4CCC(N5CCCCC5)CC4)cc13)-c1cc3c(c(=O)n1C2)COC(=O)[C@]3(O)CC [Form b, (S)-4,11-Diethyl-3,4,12,14-tetrahydro-4-hydroxy-3,14-dioxo-1H-pyrano[3′,4′:6,7]-indolizino[1,2-b]quinolin-9-yl[1,4′-bipiperidine]-1-carboxylate hydrochloride]

Reference: patent US20060046993A1, “Crystalline polymorphic form of irinotecan hydrochloride” (Pharmacia Italia S.p.A., priority 2004, published 2006)
